Experimental data reported in patent publication US12187742B2 (XRAD Therapeutics, Inc., priority 2018, dated 2025).
Structures can show the parent of a compound that is named as a salt.

Experiments:
ATM = ATM (Homo sapiens (Human), UniProt Q13315); test: ATM in Cell Western Assay (pKAP1 in etoposide-treated MCF-7 cells); format: cell-based
Outline: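 Cells received compounds in a 10-dose, 3-fold series from a 1 μM final top concentration, then 100 μM etoposide, for 1 hr at 37° C. They were then fixed with paraformaldehyde and permeabilized with 0.1% Triton X-100. After immunostaining, plates were scanned on an infrared imager.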

DNA-PK = DNA-PK (Homo sapiens (Human), UniProt P78527); test: DNA-PK Enzyme-Linked Immunosorbent Assay (phosphorylation of GST-p53 (1-101) peptide); format: biochemical; details: ELISA
Outline: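 ELISA with plate-bound GST-p53 (1-101) phosphorylated by DNA-PK (0.1 μg/mL final) with 20 μM ATP for 1 h at 25 °C. Compounds tested over 10 3-fold doses from 100 nM top final. Phospho-p53 Ser15 detected by antibody, HRP and TMB, absorbance at 450 nm.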

[1] = pKAP1 in etoposide-treated MCF-7 cells
[2] = MCF-7 cells, etoposide 100 μM, 1 hr, pKAP1 readout

ATM, sequence (Q13315 whole entry): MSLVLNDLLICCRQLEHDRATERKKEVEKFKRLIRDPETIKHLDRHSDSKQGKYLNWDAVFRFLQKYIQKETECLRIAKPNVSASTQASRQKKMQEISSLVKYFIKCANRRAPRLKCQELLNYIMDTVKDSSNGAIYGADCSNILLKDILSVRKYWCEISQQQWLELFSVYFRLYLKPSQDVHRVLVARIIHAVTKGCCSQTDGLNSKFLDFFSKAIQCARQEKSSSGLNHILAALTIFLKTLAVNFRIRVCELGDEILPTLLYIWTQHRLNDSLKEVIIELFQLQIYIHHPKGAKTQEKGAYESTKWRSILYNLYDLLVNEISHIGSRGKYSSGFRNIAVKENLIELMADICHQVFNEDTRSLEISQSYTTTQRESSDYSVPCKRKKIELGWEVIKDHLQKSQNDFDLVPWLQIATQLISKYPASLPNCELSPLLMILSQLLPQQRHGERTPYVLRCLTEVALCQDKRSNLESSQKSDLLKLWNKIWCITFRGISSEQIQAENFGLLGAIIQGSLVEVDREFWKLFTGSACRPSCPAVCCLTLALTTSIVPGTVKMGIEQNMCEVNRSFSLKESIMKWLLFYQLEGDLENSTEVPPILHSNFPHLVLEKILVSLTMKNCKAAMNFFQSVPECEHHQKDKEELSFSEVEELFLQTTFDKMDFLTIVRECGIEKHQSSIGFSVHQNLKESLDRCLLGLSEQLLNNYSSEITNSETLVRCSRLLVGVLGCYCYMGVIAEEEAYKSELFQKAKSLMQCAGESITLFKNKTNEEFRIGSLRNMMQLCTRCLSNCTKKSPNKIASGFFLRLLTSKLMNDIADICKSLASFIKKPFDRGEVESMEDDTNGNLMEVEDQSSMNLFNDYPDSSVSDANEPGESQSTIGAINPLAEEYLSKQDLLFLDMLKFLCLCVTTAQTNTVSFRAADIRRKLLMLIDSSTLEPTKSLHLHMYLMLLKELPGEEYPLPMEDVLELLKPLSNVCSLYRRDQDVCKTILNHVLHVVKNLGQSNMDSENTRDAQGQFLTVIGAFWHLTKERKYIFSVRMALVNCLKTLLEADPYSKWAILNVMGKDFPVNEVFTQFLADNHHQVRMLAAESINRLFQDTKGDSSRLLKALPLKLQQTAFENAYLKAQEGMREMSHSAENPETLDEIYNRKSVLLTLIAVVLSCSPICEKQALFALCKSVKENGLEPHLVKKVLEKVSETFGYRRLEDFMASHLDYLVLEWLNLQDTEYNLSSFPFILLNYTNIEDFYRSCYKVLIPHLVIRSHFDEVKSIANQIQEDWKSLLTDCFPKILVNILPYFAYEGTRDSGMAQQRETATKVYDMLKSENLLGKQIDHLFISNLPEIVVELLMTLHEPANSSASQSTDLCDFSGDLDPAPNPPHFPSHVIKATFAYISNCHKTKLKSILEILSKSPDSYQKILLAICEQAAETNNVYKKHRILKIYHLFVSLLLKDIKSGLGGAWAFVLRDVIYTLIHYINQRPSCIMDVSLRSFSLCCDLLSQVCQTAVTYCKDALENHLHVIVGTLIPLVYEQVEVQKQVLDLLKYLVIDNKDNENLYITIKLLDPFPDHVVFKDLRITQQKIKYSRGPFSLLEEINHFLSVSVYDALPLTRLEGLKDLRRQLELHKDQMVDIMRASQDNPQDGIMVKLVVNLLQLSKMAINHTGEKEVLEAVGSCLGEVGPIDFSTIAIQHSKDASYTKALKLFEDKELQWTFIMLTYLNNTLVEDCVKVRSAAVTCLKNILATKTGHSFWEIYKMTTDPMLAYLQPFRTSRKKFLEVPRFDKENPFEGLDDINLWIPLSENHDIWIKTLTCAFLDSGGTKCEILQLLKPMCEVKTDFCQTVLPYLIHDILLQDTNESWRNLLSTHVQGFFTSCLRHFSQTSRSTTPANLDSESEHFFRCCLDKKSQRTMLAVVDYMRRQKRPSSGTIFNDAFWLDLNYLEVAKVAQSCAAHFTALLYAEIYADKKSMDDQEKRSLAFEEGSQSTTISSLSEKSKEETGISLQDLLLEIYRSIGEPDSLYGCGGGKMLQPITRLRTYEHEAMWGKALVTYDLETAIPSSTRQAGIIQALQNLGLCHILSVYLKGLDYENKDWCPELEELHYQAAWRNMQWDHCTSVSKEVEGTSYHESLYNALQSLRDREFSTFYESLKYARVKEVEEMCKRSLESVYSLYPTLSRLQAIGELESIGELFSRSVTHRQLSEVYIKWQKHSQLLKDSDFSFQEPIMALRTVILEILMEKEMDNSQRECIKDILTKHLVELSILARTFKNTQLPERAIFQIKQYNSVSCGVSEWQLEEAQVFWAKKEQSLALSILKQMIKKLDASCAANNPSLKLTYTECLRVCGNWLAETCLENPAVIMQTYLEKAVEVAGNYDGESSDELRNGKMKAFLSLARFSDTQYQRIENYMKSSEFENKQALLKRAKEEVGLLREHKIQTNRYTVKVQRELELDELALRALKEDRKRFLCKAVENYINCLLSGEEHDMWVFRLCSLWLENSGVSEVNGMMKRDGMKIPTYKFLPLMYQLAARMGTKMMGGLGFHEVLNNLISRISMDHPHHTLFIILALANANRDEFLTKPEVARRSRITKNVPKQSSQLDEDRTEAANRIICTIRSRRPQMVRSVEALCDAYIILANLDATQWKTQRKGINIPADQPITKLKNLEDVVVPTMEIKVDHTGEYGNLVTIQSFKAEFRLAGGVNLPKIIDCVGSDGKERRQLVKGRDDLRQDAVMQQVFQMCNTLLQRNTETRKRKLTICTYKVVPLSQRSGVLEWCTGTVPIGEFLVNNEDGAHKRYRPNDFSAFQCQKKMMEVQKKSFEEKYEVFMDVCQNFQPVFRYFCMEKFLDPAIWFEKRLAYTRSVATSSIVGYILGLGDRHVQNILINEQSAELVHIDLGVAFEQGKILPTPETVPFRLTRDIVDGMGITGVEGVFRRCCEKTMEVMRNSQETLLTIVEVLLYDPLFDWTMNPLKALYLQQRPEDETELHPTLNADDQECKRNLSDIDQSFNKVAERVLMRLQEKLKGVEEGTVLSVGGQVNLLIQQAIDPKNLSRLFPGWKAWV

Row | IC50 (ATM; [1]) [nM] | IC50 (DNA-PK; 20 μM ATP) [nM] | IC50 (ATM; [2]) [nM] | IC50 (DNA-PK; ATP 20 μM) [nM] | SMILES
1 |  |  | 1 to 100 | < 0.5 | CN(C)CCCOc1ncc(-c2ccc3ncc4c(c3c2)C2(CCC2)C(=O)N4C)cc1NS(=O)(=O)N1CCNCC1 [Example 177, N-(2-(3-(Dimethylamino)propoxy)-5-(3′-methyl-2′-oxo-2′,3′-dihydrospiro [cyclobutane-1,1′-pyrrolo[2,3-c]quinolin]-8′-yl)pyridin-3-yl)piperazine-1-sulfonamide]
2 |  |  | < 0.5 | < 0.5 | CN(C)CCCOc1ncc(-c2ccc3ncc4c(c3c2)C2(CC2)C(=O)N4C)cc1NS(=O)(=O)c1ccccc1 [Example 4, N-(2-(3-(Dimethylamino)propoxy)-5-(3′-methyl-2′-oxo-2′,3′-dihydrospiro[cyclopropane-1,1′-pyrrolo[2,3-c]quinolin]-8′-yl)pyridin-3-yl)benzenesulfonamide]
3 | 1 to 100 | 1 to 100 |  |  | COc1ccc([C@H]2C[C@]3(C2)C(=O)N(C)c2cnc4cc(F)c(-c5cnc(OCCNC(C)C)c(NS(C)(=O)=O)c5)cc4c23)cc1 [Example 420, cis-N-(5-(7′-Fluoro-3-(4-methoxyphenyl)-3-methyl-2′-oxo-2′,3′-dihydrospiro[cyclobulane-1,1′-pyrrolo[2,3-c]quinolin]-8′-yl)-2-(2-(isopropylamino)ethoxy)pyridin-3-yl)methanesulfonamide hydrochloride]
4 | 1 to 100 | < 0.5 |  |  | CO[C@H]1C[C@@]2(C1)C(=O)N(C)c1cnc3ccc(-c4cnc(OCCNC(C)C)c(NS(C)(=O)=O)c4)cc3c12 [Example 384, trans-N-(2-(2-(Isopropylamino)ethoxy)-5-(3-methoxy-3′-methyl-2′-oxo-2,3′-dihydrospiro[cyclobutane-1,1′-pyrrolo[2,3-c]quinolin]-8′-yl)pyridin-3-yl)methanesulfonamide hydrochloride]
5 |  |  | 1 to 100 | 1 to 100 | Cc1ccc(S(=O)(=O)n2c(CCN3CCCCC3)cc3ncc(-c4ccc5ncc6c(c5c4)C4(CCC4)C(=O)N6C)cc32)cn1 [Example 216, 3′-Metbyl-8′-(1-((6-methylpyridin-3-yl)sulfonyl)-2-(2-(piperidin-1-yl)ethyl)-1H-pyrrolo[3,2-b]pyridin-6-yl)spiro[cyclobutane-1,1′-pyrrolo[2,3-c]quinolin]-2′(3′-H)-one]
6 | > 100 | 1 to 100 |  |  | CC(C)NCCOc1ncc(-c2cc3c(cc2F)ncc2c3[C@]3(C[C@@H](c4cccc(Cl)c4)C3)C(=O)N2C)cc1NS(C)(=O)=O [Example 419, trans-N-(5-(3-(3-Chlorophenyl)-7′-fluoro-3′-methyl-2′-oxo-2′,3′-dihydrospiro[cyclobutane-1,1′-pyrrolo[2,3-c]quinolin]-8′-yl)-2-(2-(isopropylamino)ethoxy)pyridin-3-yl)methanesulfonamide]
7 |  |  | 1 to 100 | 1 to 100 | CN(C)CCCOc1ncc(-c2cc3c4c(cnc3cc2F)N(C)C(=O)C42CC2)cc1NS(=O)(=O)c1ccccc1 [Example 65, N-(2-(3-(Dimethylamino)propoxy)-5-(7′-fluoro-3′-methyl-2′-oxo-2′,3′-dihydrospiro [cyclopropane-1,1′-pyrrolo[2,3-c]quinolin]-8′-yl)pyridin-3-yl) benzenesulfonamide]
8 |  |  | 1 to 100 | < 0.5 | COc1ncc(-c2ccc3ncc4c(c3c2)C2(CC2)C(=O)N4CC#N)cc1NS(=O)(=O)c1ccccc1 [Example 21, N-(5-(3′-(Cyanomethyl)-2′-oxo-2′,3′-dihydrospiro[cyclopropane-1,1′-pyrrolo[2,3-c]quinolin]-8′-yl)-2-methoxypyridin-3-yl)benzenesulfonamide]
9 |  |  | 1 to 100 | 1 to 100 | COC1CN(S(=O)(=O)Nc2cc(-c3cc4c5c(cnc4cc3F)N(C)C(=O)C53CCC3)cnc2N2CC(N(C)C)C2)C1 [Example 311, N-(2-(3-(Dimethylamino)azetidin-1-yl)-5-(7′-fluoro-3′-methyl-2′-oxo-2′,3′-dihydrospiro[cyclobulane-1,1′-pyrrolo[2,3-c]quinolin]-8′-yl)pyridin-3-yl)-3-methoxyazetidine-1-sulfonamide formate]
10 |  |  | 1 to 100 | 0.5 to 1 | CN1C(=O)C2(CC2)c2c1cnc1ccc(-c3cnc(N)nc3)cc21 [Example 48, 8′-(2-Aminopyrimidin-5-yl)-3′-methylspiro [cyclopropane-1,1′-pyrrolo [2,3-c]quinolin]-2′(3′-H)-one]
11 |  |  | 1 to 100 | 0.5 to 1 | Cc1ccc(S(=O)(=O)Nc2cc(-c3ccc4ncc5c(c4c3)C3(CCC3)C(=O)N5C)cnc2N2CCC(N(C)C)CC2)cn1 [Example 185, N-(2-(4-(Dimethylamino)piperidin-1-yl)-5-(3′-methyl-2′-oxo-2′,3′-dihydrospiro[cyclobutane-1,1′-pyrrolo[2,3-c]quinolin]-8′-yl)pyridin-3-yl)-6-methylpyridine-3-sulfonamide hydrochloride]

Further lines, the molecule ahead of its results:

Row | SMILES | IC50 (ATM; [1]) [nM] | IC50 (DNA-PK; 20 μM ATP) [nM] | IC50 (ATM; [2]) [nM] | IC50 (DNA-PK; ATP 20 μM) [nM]
12 | CO[C@H]1C[C@]2(C1)C(=O)N(C)c1cnc3cc(F)c(-c4cnc(OCCNC(C)C)c(NS(C)(=O)=O)c4)cc3c12 [Example 385, cis-N-(5-(7′-Fluoro-3-methoxy-3′-methyl-2′-oxo-2′,3′-dihydrospiro[cyclobutane-1,1′-pyrrolo[2,3-c]quinolin]-8′-yl)-2-(2-(isopropylamino)ethoxy)pyridin-3-yl)methanesulfonamide] | 1 to 100 | < 0.5 |  | 
13 | CN(C)CCCOc1ncc(-c2ccc3ncc4c(c3c2)C2(CC2)C(=O)N4C)cc1NS(=O)(=O)c1cnn(C)c1 [Example 91, N-(2-(3-(Dimethylamino)propoxy)-5-(3′-methyl-2′-oxo-2′,3′-dihydrospiro [cyclopropane-1,1′-pyrrolo[2,3-c]quinolin]-8′-yl)pyridin-3-yl)-1-methyl-1H-pyrazole-4-sulfonamide] |  |  | 1 to 100 | < 0.5
14 | COc1cc([C@H]2C[C@]3(C2)C(=O)N(C)c2cnc4cc(F)c(-c5cnc(OCCNC(C)C)c(NS(C)(=O)=O)c5)cc4c23)ccn1 [Example 432, cis-N-(5-(7′-Fluoro-3-(2-methoxypyridin-4-yl)-3′-methyl-2′-oxo-2′,3′-dihydrospiro[cyclobutane-1,1′-pyrrolo[2,3-c]quinolin]-8′-yl)-2-(2-(isopropylamino)ethoxy)pyridin-3-yl)methanesulfonamide] | 1 to 100 | 1 to 100 |  | 
15 | CN(C)CCCOc1ncc(-c2ccc3ncc4c(c3c2)C2(CCC2)C(=O)N4C)cc1NS(=O)(=O)c1ccc(F)c(C#N)c1 [Example 159, 3-Cyano-N-(2-(3-(dimethylamino)propoxy)-5-(3′-methyl-2′-oxo-2′,3′-dihydrospiro [cyclobutane-1,1′-pyrrolo[2,3-c]quinolin]-8′-yl)pyridin-3-yl)-4-fluorobenzene-sulfonamide hydrochloride] |  |  | 0.5 to 1 | 0.5 to 1
16 | CC(C)NCCOc1ncc(-c2cc3c(cc2F)ncc2c3[C@]3(C[C@@H](c4ccc(F)cc4)C3)C(=O)N2C)cc1NS(C)(=O)=O [Example 423, trans-N-(5-(7′-Fluoro-3-(4-fluorophenyl)-3′-methyl-2′-oxo-2′,3′-dihydrospiro[cyclobutane-1,1′-pyrrolo[2,3-c]quinolin]-8′-yl)-2-(2-(isopropylamino)ethoxy)pyridin-3-yl)methanesulfonamide] | 1 to 100 | 1 to 100 |  | 
17 | CN1C(=O)C2(CCC2)c2c1cnc1ccc(-c3cnc(OCCCN4CCCCC4)c(NS(=O)(=O)N(C)C)c3)cc21 [Example 180, hydrochloride] |  |  | 1 to 100 | 0.5 to 1
18 | CN(C)CCCOc1ncc(-c2ccc3ncc4c(c3c2)C2(CCCCC2)C(=O)N4C)cc1NS(=O)(=O)c1ccccc1 [Example 3, N-(2-(3-(Dimethylamino)propoxy)-5-(3′-methyl-2′-oxo-2′,3′-dihydrospiro[cyclohexane-1,1′-pyrrolo[2,3-c]quinolin]-8′-yl)pyridin-3-yl) benzenesulfonamide] |  |  | 1 to 100 | 1 to 100
19 | CN1C(=O)C2(CCC2)c2c1cnc1ccc(-c3cnc(OCCCN4CCOCC4)c(NS(=O)(=O)c4ccccc4)c3)cc21 [Example 131, N-(5-(3′-Methyl-2′-oxo-2′,3′-dihydrospiro[cyclobulane-1,1′-pyrrolo[2,3-c]quinolin]-8′-yl)-2-(3-morpholinopropoxy)pyridin-3-yl)benzenesulfonamide hydrochloride] |  |  | 1 to 100 | 1 to 100
20 | CN1C(=O)C2(CCC2)c2c1cnc1ccc(-c3cnc(OCCCN4CCOCC4)c(NS(=O)(=O)C4CC4)c3)cc21 [Example 306, N-(5-(3′-Methyl-2′-oxo-2′,3′-dihydrospiro[cyclobutane-1,1′-pyrrolo[2,3-c]quinolin]-8′-yl)-2-(3-morpholinopropoxy)pyridin-3-yl)cyclopropanesulfonamide] |  |  | 1 to 100 | 1 to 100
21 | CN1C(=O)C2(CCC2)c2c1cnc1ccc(-c3cnc(N4CCC(N5CCCCC5)CC4)c(NS(=O)(=O)c4ccccc4F)c3)cc21 [Example 203] |  |  | 1 to 100 | 0.5 to 1
22 | CN1C(=O)C2(CCC2)c2c1cnc1ccc(-c3cnc(N4CCC(N(C)C)CC4)c(NS(=O)(=O)N(C)C)c3)cc21 [Example 226, 8′-{6-[4-(Dimethylamino)piperidin-1-yl]-5-[(dimethylsulfamoyl)amino]pyridin-3-yl}-3′-methyl-2′,3′-dihydrospiro[cyclobutane-1,1′-pyrrolo[2,3-c]quinoline]-2′-one] |  |  | 0.5 to 1 | < 0.5
23 | Cc1ccc(S(=O)(=O)Nc2cc(-c3ccc4ncc5c(c4c3F)C3(CCC3)C(=O)N5C)cnc2OCCCN(C)C)cc1 [Example 204, N-(2-(3-(Dimethylamino)propoxy)-5-(9′-fluoro-3′-methyl-2′-oxo-2′,3′-dihydrospiro[cyclobutane-1,1′-pyrrolo[2,3-c]quinolin]-8′-yl)pyridin-3-yl)-4-methylbenzenesulfonamide] |  |  | 1 to 100 | 0.5 to 1
